From US10166229B2, “Compounds and methods for the treatment of cancer” (The Board of Trustees of the University of Illinois, priority 2005, dated 2019) come the findings set out here.

In one assay the test system is HL-60 cell line. The assay is described as follows: IC50 of PAC-1 derivatives in HL-60 cell line (Table 5). It is filed as cell-based. As to conditions: for Fold better than PAC-1: HL-60 IC50 relative to PAC-1; for IC50: Homo sapiens, HL-60, Table 5. From the text: The results are indicated in Table 5 (where L- and R-designations refer to structures shown in the AX and BX series above, respectively).

The subject of assay [1] is HL-60 cells. Nature of the assay: Cell death induction IC50 (MTS) in HL-60. It is filed as cell-based, human.
The target in assay [2] is T1, procaspase-3 (Homo sapiens (Human), UniProt P42574). The assay is described as follows: In vitro activation of purified procaspase-3 (activation curves, Ac-DEVD-pNA). It is filed as biochemical. As to conditions: for EC50: Table 3, read-out: EC50 (μM) for procaspase-3 activation; for Activity (direct activation of purified procaspase-3 in vitro): Table 2. The protocol:
Activation curves. […] The plate was read every 2 minutes at 405 nm for 2 hours in a Spectra Max Plus 384 well plate reader. The slope of the linear portion for each well was determined and the fold increase in activation from non-treated control wells was calculated. […]

The subject of assay [3] is HL-60 cells. The assay is described as follows: Apoptosis induction assay in HL-60 cells, 72 hrs (Table 6). The class given is cell-based. Here is the method: Compounds DX1-DX17 were tested using the HL-60 cell line for the ability to effect apoptosis, and IC50 values were determined. Activity levels of compounds from assays of 72 hrs duration with HL-60 cells are shown in Table 6 and along with structures in FIG. 12.

The test system of a further assay is SK-N-SH. Nature of the assay: Cell death IC50 (MTS) in SK-N-SH. The class given is cell-based. As to conditions: etoposide, 24 hours; read-out: IC50 for inducing death, SK-N-SH.
The subject of assay [4] is UACC-62 melanoma cell line. Nature of the assay: Cell death IC50 (MTS) in UACC-62. It is filed as cell-based. The settings on record: etoposide, 24 hours; read-out: IC50 for inducing death, UACC-62.
Assay [5] relates to NCI-H226 lung cancer cell line. The assay is described as follows: Cell death IC50 (MTS) in NCI-H226. The class given is cell-based. As to conditions: etoposide, 24 hours; read-out: IC50 for inducing death, NCI-H226.
Assay [6] concerns B16-F10 melanoma cell line. The assay is described as follows: Cell death IC50 (MTS) in B16-F10. The class given is cell-based. As to conditions: etoposide, 24 hours; read-out: IC50 for inducing death, B16-F10.
The subject of a further assay is U-937. Nature of the assay: Cell death IC50 (MTS) in U-937. It is filed as cell-based. The settings on record: etoposide, 24 hours; read-out: IC50 for inducing death, U-937.
In another assay the test system is PC-12. The assay is described as follows: Cell death IC50 (MTS) in PC-12. The class given is cell-based. As to conditions: etoposide, 24 hours; read-out: IC50 for inducing death, PC-12.
Assay [7] relates to CRL-1872 melanoma cell line. Nature of the assay: Cell death IC50 (MTS) in CRL-1872. The settings on record: etoposide, 24 hours; read-out: IC50 for inducing death, CRL-1872. The class given is cell-based.
Assay [8] deals with Hs 578t breast cancer cell line. The assay is described as follows: Cell death IC50 (MTS) in Hs 578t. The settings on record: etoposide, 24 hours; read-out: IC50 for inducing death, Hs 578t. The class given is cell-based.
Assay [9] deals with T1, procaspase-3. Nature of the assay: Western blot of in vitro procaspase-3 activation by DX compounds. The class given is biochemical. The settings on record: 50 micromolar compound, about 35 nanomolar procaspase-3, 8 hr. Here is the method:
Certain compounds were also tested for the ability to effect in vitro activation of procaspase-3.

The mark [10] stands for this setting: Homo sapiens, HL-60, Table 3, read-out: IC50 (μM) for death induction in HL-60 cells.

T1 sequence (P42574 whole entry): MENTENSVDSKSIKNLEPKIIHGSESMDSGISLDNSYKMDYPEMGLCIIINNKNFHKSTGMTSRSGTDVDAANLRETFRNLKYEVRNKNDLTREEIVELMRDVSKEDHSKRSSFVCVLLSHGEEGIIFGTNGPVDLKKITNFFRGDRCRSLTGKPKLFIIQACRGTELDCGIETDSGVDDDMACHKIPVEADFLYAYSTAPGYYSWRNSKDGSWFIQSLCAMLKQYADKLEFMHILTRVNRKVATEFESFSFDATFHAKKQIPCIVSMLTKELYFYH

With `CC(C)(C)c1cc(/C=N/NC(=O)CN2CCN(Cc3ccc(CCc4ccccc4)cc3)CC2)c(O)c(C(C)(C)C)c1` [Compound L08R06], in the assay on HL-60 cell line, the “Fold better than PAC-1” value is on record as 10.3-fold and it took 5.31 µM to reach half-maximal inhibition (IC50).

Take `c1ccc(CN2CCN(Cc3ccccc3)CC2)cc1`: the IC50 in the assay with HL-60 cells [1] (setting [10]) was more than 100 µM. Also, the half-maximal effective concentration (EC50) on procaspase-3 [2] is more than 50 µM.

For `c1ccc(CN2CCNCC2)cc1` [drawing 33], the IC50 in the assay with HL-60 cells [1] (setting [10]) was more than 100 µM. Besides, at procaspase-3 [2], the EC50 was more than 50 µM.

Turning to `CC(C)(C)c1cc(/C=N/NC(=O)CN2CCN(Cc3ccccc3)CC2)c(O)c(C(C)(C)C)c1` [Compound L01R06], in the assay on HL-60 cell line, the “Fold better than PAC-1” value is listed as 9.7-fold and 5.63 µM corresponded to half-maximal inhibition (IC50).

For `O=C(CN1CCN(Cc2ccccc2)CC1)N/N=C/c1ccccc1` [drawing 26], the half-inhibitory concentration (IC50) in the assay with HL-60 cells [1] (setting [10]) was more than 100 µM. For the same molecule, the EC50 on procaspase-3 [2] is more than 50 µM.

On to `O=C(CN1CCN(Cc2ccccc2)CC1)N/N=C/c1ccccc1O` [de-allyl PAC-1], for which it took 8.7 µM to reach half-maximal inhibition in the assay on HL-60 cells [3] (Homo sapiens) (IC50).

As to `c1ccc(CN2CCNCC2)cc1` [Compound 2], the “Activity (direct activation of purified procaspase-3 in vitro)” value (“Activity” below) on procaspase-3 [2] is “Inactive”.

For `C=CCc1cccc(/C=N/NC(=O)CN2CCN(Cc3ccc(OCc4ccccc4)c(OCc4ccccc4)c3)CC2)c1O` [Compound L09R03], in the assay on HL-60 cell line, the “Fold better than PAC-1” value is 11.3-fold and inhibition was half-maximal at 4.82 µM (IC50).

On to `CCOC(=O)CN1CCN(Cc2ccccc2)CC1`, for which the 50% inhibitory concentration (IC50) with HL-60 cells [1] (setting [10]) is more than 100 µM. The EC50 on procaspase-3 [2] is more than 50 µM.

`NNC(=O)CN1CCN(Cc2ccccc2)CC1` [Compound 4]: the “Activity” value on procaspase-3 [2] is recorded as “Inactive”.

Consider `C=CCc1cccc(/C=N/NC(=O)CN2CCN(Cc3ccc(C(C)(C)C)cc3)CC2)c1O` [Compound L02R03], for which, in the assay with HL-60 cell line, the “Fold better than PAC-1” value is recorded as 12.6-fold and the midpoint of inhibition, the IC50, lay at 4.34 µM.

Take `CC(C)(C)c1ccc(CN2CCN(CC(=O)N/N=C/c3cc(C(C)(C)C)cc(C(C)(C)C)c3O)CC2)cc1` [Compound L02R06]: in the assay on HL-60 cell line, the “Fold better than PAC-1” value was 8.4-fold and inhibition was half-maximal at 6.53 µM (IC50).

For `O=C(CN1CCN(Cc2ccc(OCc3ccccc3)c(OCc3ccccc3)c2)CC1)N/N=C/c1c(O)ccc2ccccc12` [Compound L09R08], in the assay on HL-60 cell line, the “Fold better than PAC-1” value was 22.6-fold and the IC50 was 2.42 µM.

Take `COc1cc([C@@H]2c3cc4c(cc3[C@@H](O[C@@H]3O[C@@H]5CO[C@@H](C)O[C@H]5[C@H](O)[C@H]3O)[C@H]3COC(=O)[C@H]23)OCO4)cc(OC)c1O` [etoposide]: the IC50 with HL-60 cells [1] (etoposide, 24 hours, read-out: IC50 for inducing death, HL-60) was less than 1 µM; with SK-N-SH, less than 1 µM; in assay [4] it was more than 50 µM; in [5], more than 50 µM; in assay [6], more than 50 µM; with U-937 it was less than 1 µM. Further, the 50% inhibitory concentration (IC50) in the assay with PC-12 is less than 1 µM; in assay [7] it was more than 50 µM; in [8], more than 50 µM.

For the molecule `O=C(CN1CCN(Cc2ccccc2)CC1)N/N=C/c1ccccc1` [Compound 7], the “Activity” value at procaspase-3 [2] is reported as “Inactive”.

On to `NNC(=O)CN1CCN(Cc2ccccc2)CC1` [drawing 29], for which, in the assay on HL-60 cells [1] (setting [10]), the 50% inhibitory concentration (IC50) was more than 100 µM. Moreover, the EC50 on procaspase-3 [2] was more than 50 µM.

Take `CCOC(=O)CN1CCNCC1`: the IC50 in the assay on HL-60 cells [1] (setting [10]) was more than 100 µM. Besides, the EC50 on procaspase-3 [2] was more than 50 µM.

Take `O=C(CN1CCNCC1)N/N=C/c1ccccc1O`: the IC50 in the assay with HL-60 cells [1] (setting [10]) is more than 100 µM. Further, at procaspase-3 [2], the EC50 was more than 50 µM.

For `CN1CCN(CC(=O)N/N=C/c2ccccc2O)CC1` [Compound 6], the “Activity” value at procaspase-3 [2] is given as “Inactive”.

On to `CC(C)(C)c1cc(/C=N/NC(=O)CN2CCN(Cc3ccc(OCc4ccccc4)c(OCc4ccccc4)c3)CC2)c(O)c(C(C)(C)C)c1` [Compound L09R06], for which, in the assay on HL-60 cell line, the “Fold better than PAC-1” value is given as 13.1-fold and the half-inhibitory concentration (IC50) came to 4.17 µM.

Consider `C/C=N/NC(=O)CN1CCN(Cc2ccccc2)CC1`, for which the IC50 with HL-60 cells [1] (setting [10]) was more than 100 µM. Besides, at procaspase-3 [2], the 50% effective concentration (EC50) was more than 50 µM.

Regarding `C=CCc1cccc(/C=N/NC(=O)CN2CCC(Cc3ccccc3)CC2)c1O` [DX11], the “in vitro activation of procaspase-3 (Western blot) relative to control” value at procaspase-3 [9] is reported as “substantial activity levels”. This molecule also had an IC50 in the assay with HL-60 cells [3] of 3.2 µM.
